These results are taken from patent US11066369B2, “N-(pyridin-2-yl)pyridine-sulfonamide derivatives and their use in the treatment of disease” (Novartis AG, priority 2016, dated 2021).

In this assay the target is T1, horseradish peroxidase (HRP) tagged delF508-CFTR (Homo sapiens, UniProt P13569, DEL508-508).
T1 construct: expressed in transfected cells
Briefly: Measurement of delF508-CFTR-HRP surface expression in CFBE41o- cells.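 On DelF508-CFTR-HRP Amax %: percent efficacy relative to reference corrector lumacaftor.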 The assay is classed as cell-based. To be noted: for Emax: read-out: DelF508-CFTR-HRP Amax %; for EC50: read-out: DelF508-CFTR-HRP EC50. An outline of the steps:
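CFBE41o- bronchial epithelial cells stably expressing delF508-CFTR with HRP in the fourth extracellular loop; expression induced 48h with 500 ng/mL doxycycline, then compounds added (top 10 μM, 10-point 3-fold series, ≤0.5% DMSO) for 24h at 37° C. Surface HRP measured by luminescence with cell-impermeant substrate; EC50 from logistic fit of triplicates, plate-normalized to lowest concentration; efficacy also relative to a reference corrector.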

Where [1] appears, read: delF508-CFTR-HRP surface expression, CFBE41o- cells.
Where [2] appears, read: CFBE41o- cells, mean of at least two replicates.
[3] abbreviates: CFBE41o- cells, surface expression Amax.

Where two headings read alike, the source gives them in different places.

T1 sequence (P13569 with tags, fused parts or gaps DEL508-508): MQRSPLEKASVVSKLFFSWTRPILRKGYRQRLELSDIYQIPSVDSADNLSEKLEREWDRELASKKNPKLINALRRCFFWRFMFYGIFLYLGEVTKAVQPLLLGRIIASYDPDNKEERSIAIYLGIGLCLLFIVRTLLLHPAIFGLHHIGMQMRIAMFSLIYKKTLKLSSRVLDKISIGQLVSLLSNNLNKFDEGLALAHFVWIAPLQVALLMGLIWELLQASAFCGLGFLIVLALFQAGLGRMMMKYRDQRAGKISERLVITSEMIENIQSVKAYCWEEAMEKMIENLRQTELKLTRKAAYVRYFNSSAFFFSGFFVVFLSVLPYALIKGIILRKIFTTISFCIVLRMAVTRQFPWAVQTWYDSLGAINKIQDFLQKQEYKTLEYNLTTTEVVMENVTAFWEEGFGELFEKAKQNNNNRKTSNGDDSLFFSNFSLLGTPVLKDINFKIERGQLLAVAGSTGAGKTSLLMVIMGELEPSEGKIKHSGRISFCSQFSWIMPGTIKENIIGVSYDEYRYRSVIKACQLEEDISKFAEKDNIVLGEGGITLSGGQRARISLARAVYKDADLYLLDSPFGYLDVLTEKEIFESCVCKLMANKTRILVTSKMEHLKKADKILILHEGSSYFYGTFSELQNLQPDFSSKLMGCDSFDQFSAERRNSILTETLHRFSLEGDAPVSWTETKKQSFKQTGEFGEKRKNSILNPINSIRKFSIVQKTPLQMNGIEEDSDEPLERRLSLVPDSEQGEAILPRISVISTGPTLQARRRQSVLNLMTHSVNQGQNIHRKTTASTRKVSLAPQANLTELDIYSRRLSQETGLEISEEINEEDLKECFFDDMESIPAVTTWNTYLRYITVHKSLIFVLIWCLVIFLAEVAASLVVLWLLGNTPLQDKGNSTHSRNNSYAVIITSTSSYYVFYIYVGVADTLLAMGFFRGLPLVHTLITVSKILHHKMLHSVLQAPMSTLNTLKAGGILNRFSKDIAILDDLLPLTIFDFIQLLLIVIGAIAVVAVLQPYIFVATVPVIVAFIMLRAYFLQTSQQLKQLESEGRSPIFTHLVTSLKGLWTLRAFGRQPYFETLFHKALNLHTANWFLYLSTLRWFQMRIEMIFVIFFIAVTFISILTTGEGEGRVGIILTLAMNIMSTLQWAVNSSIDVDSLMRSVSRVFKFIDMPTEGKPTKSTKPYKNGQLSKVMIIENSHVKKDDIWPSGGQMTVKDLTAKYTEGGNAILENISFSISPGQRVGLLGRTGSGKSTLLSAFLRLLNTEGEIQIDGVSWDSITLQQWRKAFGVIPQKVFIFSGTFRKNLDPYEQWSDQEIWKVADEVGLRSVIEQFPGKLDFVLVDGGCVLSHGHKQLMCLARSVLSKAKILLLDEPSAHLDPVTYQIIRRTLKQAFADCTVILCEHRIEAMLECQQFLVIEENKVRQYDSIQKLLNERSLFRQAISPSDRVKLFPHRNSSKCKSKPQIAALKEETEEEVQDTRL

On to `Cc1ccccc1-c1nc(NS(=O)(=O)c2cccc(N3C[C@H]4C[C@H]4[C@H]3C(=O)O)n2)ccc1C(F)(F)F` [Example 340, (1R,2S,5S)-3-(6-{[6-(2-methylphenyl)-5-(trifluoromethyl)pyridin-2-yl]sulfamoyl}pyridin-2-yl)-3-azabicyclo[3.1.0]hexane-2-carboxylic Acid], for which, under setting [1], the Emax is 278% and the EC50 came out at 2.45 µM.
The matching figures for `CCc1ccccc1-c1nc(NS(=O)(=O)c2cccc(N3CCC[C@@H](C(=O)O)C3)n2)ccc1C(F)(F)F` [Example 369, (R)-1-(6-(N-(6-(2-ethylphenyl)-5-(trifluoromethyl)pyridin-2-yl)sulfamoyl)pyridin-2-yl)piperidine-3-carboxylic Acid]: 962% and 1.72 µM.
For the compound `Cc1ccc(C#N)cc1-c1nc(NS(=O)(=O)c2ccnc(N)c2)ccc1Cl` [Example 85, 2-amino-N-(5-chloro-6-(5-cyano-2-methylphenyl)pyridin-2-yl)pyridine-4-sulfonamide], under setting [1], the Emax was 110% and the concentration for a half-maximal effect (EC50) came to 3.68 µM.
Turning to `CC1(C(=O)O)CCN(c2cccc(S(=O)(=O)Nc3ccc(C(F)(F)F)c(-c4ccccc4C4CCCC4)n3)n2)CC1` [Example 379, 1-(6-(N-(6-(2-cyclopentylphenyl)-5-(trifluoromethyl)pyridin-2-yl)sulfamoyl)pyridin-2-yl)-4-methylpiperidine-4-carboxylic Acid], the 50% effective concentration (EC50) under setting [2] stood at 1.08 µM. Further, the Emax (CFBE41o-) was found to be 646%.
Consider `Cc1ccccc1-c1nc(NS(=O)(=O)c2cccc(N3CCC[C@@](C)(C(=O)O)C3)n2)ccc1C(F)(F)F` [Example 415, (3R)-3-methyl-1-(6-{[6-(2-methylphenyl)-5-(trifluoromethyl)pyridin-2-yl]sulfamoyl}pyridin-2-yl)piperidine-3-carboxylic Acid], for which, under setting [2], the EC50 worked out at 1.77 µM.
Turning to `CC(C)COc1ccccc1-c1nc(NS(=O)(=O)c2cccc(N3CCC[C@@](C)(C(=O)O)C3)n2)ccc1Cl` [Example 422, (R)-1-(6-(N-(5-chloro-6-(2-isobutoxyphenyl)pyridin-2-yl)sulfamoyl)pyridin-2-yl)-3-methylpiperidine-3-carboxylic Acid], under setting [2], the concentration giving a half-maximal response (EC50) stood at 1.38 µM. Under setting [3], the Emax was determined as 905%.
For the compound `Nc1cccc(S(=O)(=O)Nc2ccc(Cl)c(-c3c(F)cccc3Cl)n2)n1` [Example 39, 6-amino-N-(5-chloro-6-(2-chloro-6-fluorophenyl)pyridin-2-yl)pyridine-2-sulfonamide], under setting [1], the Emax worked out at 374% and the EC50 worked out at 1.9 µM.
`Cc1ccccc1-c1nc(NS(=O)(=O)c2cccc(N3CCC[C@@](C)(C(=O)O)C3)n2)ccc1Cl` [Example 447, (R)-1-(6-(N-(5-chloro-6-(o-tolyl)pyridin-2-yl)sulfamoyl)pyridin-2-yl)-3-methylpiperidine-3-carboxylic Acid]: the EC50 under setting [2] was 2.41 µM.
For the compound `CCc1ccccc1-c1nc(NS(=O)(=O)c2cccc(N)n2)ccc1Cl` [Example 29, 6-amino-N-(5-chloro-6-(2-ethylphenyl)pyridin-2-yl)pyridine-2-sulfonamide], under setting [1], the Emax was 429% and the EC50 was 1.08 µM.
Taken in the same sequence, the figures for `Nc1cccc(S(=O)(=O)Nc2ccc(Cl)c(-c3cc(Cl)ccc3C3CC3)n2)n1` [Example 16, 6-amino-N-(5-chloro-6-(5-chloro-2-cyclopropylphenyl)pyridin-2-yl)pyridine-2-sulfonamide] were 519% and 1.01 µM.
The matching figures for `Nc1cccc(S(=O)(=O)Nc2ccc(Cl)c(-c3ccc(F)cc3C3CC3)n2)n1` [Example 27, 6-amino-N-(5-chloro-6-(2-cyclopropyl-4-fluorophenyl)pyridin-2-yl)pyridine-2-sulfonamide]: 430% and 1.72 µM.
Regarding `Cc1ccc(Cl)cc1-c1nc(NS(=O)(=O)c2cccc(N3CCC(C)(C(=O)O)CC3)n2)ccc1C(F)(F)F` [Example 451, 1-(6-(N-(6-(5-chloro-2-methylphenyl)-5-(trifluoromethyl)pyridin-2-yl)sulfamoyl)pyridin-2-yl)-4-methylpiperidine-4-carboxylic Acid], the EC50 under setting [2] came to 2.68 µM. Besides, the Emax under setting [3] came out at 847%.
Turning to `CC(C)c1ccccc1-c1nc(NS(=O)(=O)c2cccc(N[C@@H]3C[C@@]4(C(=O)O)CC[C@@H]3O4)n2)ccc1C(F)(F)F` (racemic) [Example 403, rac-(1RS,3RS,4SR)-3-((6-(N-(6-(2-isopropylphenyl)-5-(trifluoromethyl)pyridin-2-yl)sulfamoyl)pyridin-2-yl)amino)-7-oxabicyclo[2.2.1]heptane-1-carboxylic Acid], the half-maximal effective concentration (EC50) under setting [2] was found to be 2.36 µM. Moreover, under setting [3], the Emax came out at 155%.
Taken in the same sequence, the figures for `Cc1c(F)cccc1-c1nc(NS(=O)(=O)c2cccc(N3CCC[C@](C)(C(=O)O)C3)n2)ccc1C(F)(F)F` [Example 436, (3S)-1-(6-{[6-(3-fluoro-2-methylphenyl)-5-(trifluoromethyl)pyridin-2-yl]sulfamoyl}pyridin-2-yl)-3-methylpiperidine-3-carboxylic Acid] were 1.77 µM and 438%.
Turning to `Cc1ccc(C#N)cc1-c1nc(NS(=O)(=O)c2ccnc(N3CC(C)(O)C3)c2)ccc1C(F)(F)F` [Example 317, N-(6-(5-cyano-2-methylphenyl)-5-(trifluoromethyl)pyridin-2-yl)-2-(3-hydroxy-3-methylazetidin-1-yl)pyridine-4-sulfonamide], under setting [1], the Emax was 185% and the 50% effective concentration (EC50) is 4.67 µM.
Take `Cc1cc(F)ccc1-c1nc(NS(=O)(=O)c2ccc(N)nc2)ccc1Cl` [Example 71, 6-amino-N-(5-chloro-6-(4-fluoro-2-methylphenyl)pyridin-2-yl)pyridine-3-sulfonamide]: under setting [1], the Emax worked out at 196% and the EC50 was 3.55 µM.
Consider `Cc1ccc(F)cc1-c1nc(NS(=O)(=O)c2cccc(N3CCC34CNC4)n2)ccc1Cl` [Example 310, N-(5-chloro-6-(5-fluoro-2-methylphenyl)pyridin-2-yl)-6-(1,6-diazaspiro[3.3]heptan-1-yl)pyridine-2-sulfonamide], for which, under setting [1], the Emax amounted to 137% and the 50% effective concentration (EC50) stood at 4.98 µM.
Taken in the same sequence, the figures for `Cc1ccccc1-c1nc(NS(=O)(=O)c2cccc(N3CCNC[C@H]3C(=O)O)n2)ccc1C(F)(F)F` [Example 354, (2S)-1-(6-{[6-(2-methylphenyl)-5-(trifluoromethyl)pyridin-2-yl]sulfamoyl}pyridin-2-yl)piperazine-2-carboxylic Acid] were 154% and 2.74 µM.
Consider `N#Cc1ccccc1-c1nc(NS(=O)(=O)c2cccc(N)n2)ccc1Cl` [Example 90, 6-amino-N-(5-chloro-6-(2-cyanophenyl)pyridin-2-yl)pyridine-2-sulfonamide], for which, under setting [1], the Emax turned out to be 50% and the 50% effective concentration (EC50) stood at 3.78 µM.
The matching figures for `COC(=O)C1(C)CCN(c2cccc(S(=O)(=O)Nc3ccc(C(F)(F)F)c(-c4ccccc4C4CC4)n3)n2)CC1` [Example 236, methyl 1-(6-(N-(6-(2-cyclopropylphenyl)-5-(trifluoromethyl)pyridin-2-yl)sulfamoyl)pyridin-2-yl)-4-methylpiperidine-4-carboxylate]: 602% and 0.573 µM.

A word on the EC50: it is the midpoint of the concentration-response curve.
